Each structure is given as a SMILES string. “And” between values parts separate entries of the source, which are not always exact repeats. Identical values can stand only once. Results filed as inconclusive are left out.

This assay relates to BDF1 mice, colon carcinoma 38 sc, T/C %. The assay is described as follows: NCI In Vivo Anticancer Drug Screen. Data for tumor model Colon Carcinoma 38 (subcutaneous) in B6D2F1 (BDF1) mice. In a few lines:
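Ratio of survival or tumor size, compound-treated animals relative to vehicle controls, in tumor-bearing mice.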

Setting [1] is: endpoint: median tumor weight (est.), dose: 50.0 mg/kg/injection, schedule: Q07DX002 (ip), vehicle: saline, higher = larger tumour.
[2] abbreviates: endpoint: median tumor weight (est.), dose: 100.0 mg/kg/injection, schedule: Q07DX002 (ip), vehicle: saline, higher = larger tumour.
[3] abbreviates: endpoint: median tumor weight (est.), dose: 200.0 mg/kg/injection, schedule: Q07DX002 (ip), vehicle: saline, higher = larger tumour.
Where [4] appears, read: endpoint: median tumor weight (est.), dose: 50.0 mg/kg/injection, schedule: Q07DX002 (ip), vehicle: saline + Tween-80 + alcohol, higher = larger tumour.
Setting [5] is: endpoint: median tumor weight (est.), dose: 25.0 mg/kg/injection, schedule: Q07DX002 (ip), vehicle: saline with Tween-80, higher = larger tumour.
Setting [6] is: endpoint: median tumor weight (est.), dose: 50.0 mg/kg/injection, schedule: Q07DX002 (ip), vehicle: saline with Tween-80, higher = larger tumour.
Setting [7] is: endpoint: median tumor weight (est.), dose: 100.0 mg/kg/injection, schedule: Q07DX002 (ip), vehicle: saline with Tween-80, higher = larger tumour.
[8] abbreviates: endpoint: median tumor weight (est.), dose: 200.0 mg/kg/injection, schedule: Q07DX002 (ip), vehicle: saline with Tween-80, higher = larger tumour.
The mark [9] stands for this setting: endpoint: median tumor weight (est.), dose: 400.0 mg/kg/injection, schedule: Q07DX002 (ip), vehicle: saline with Tween-80, higher = larger tumour.
Setting [10] is: endpoint: median tumor weight (est.), dose: 100.0 mg/kg/injection, schedule: Q07DX002 (ip), vehicle: saline + Tween-80 + alcohol, higher = larger tumour.
[11] abbreviates: endpoint: median tumor weight (est.), dose: 200.0 mg/kg/injection, schedule: Q07DX002 (ip), vehicle: saline + Tween-80 + alcohol, higher = larger tumour.
The mark [12] stands for this setting: endpoint: median tumor weight (est.), dose: 400.0 mg/kg/injection, schedule: Q07DX002 (ip), vehicle: saline + Tween-80 + alcohol, higher = larger tumour.

With `Cc1ccccc1CN1C2=NCCN2C(=O)C2=C1CCN(S(=O)(=O)c1ccc(Cl)c(S(N)(=O)=O)c1)C2`, the T/C was 97 % of control under setting [1]; 86 % of control under setting [2]; 91 % of control under setting [3]; 96 % of control (endpoint: median tumor weight (est.), dose: 400.0 mg/kg/injection, schedule: Q07DX002 (ip), vehicle: saline, higher = larger tumour); 84 % of control (endpoint: median tumor weight (est.), dose: 450.0 mg/kg/injection, schedule: Q07DX002 (ip), vehicle: saline, higher = larger tumour); 100 % of control (endpoint: median tumor weight (est.), dose: 900.0 mg/kg/injection, schedule: Q07DX002 (ip), vehicle: saline, higher = larger tumour). The T/C (endpoint: median tumor weight (est.), dose: 1800.0 mg/kg/injection, schedule: Q07DX002 (ip), vehicle: saline, higher = larger tumour) was 110 % of control.
Consider `CC(=O)Oc1ccccc1O`, for which the T/C under setting [4] was 158 % of control.
Consider `CCOC(=O)N1CCc2nc3ccc(Cl)cc3cc21`, for which the T/C is, setting by setting: under setting [5], 68 % of control; under setting [6], 68 % of control; under setting [7], 166 % of control; under setting [8], 79 % of control; under setting [9], 111 % of control.
Take `CC(/C=C/c1ccccc1)=Nc1ccccc1`: the T/C under setting [5] is 40 % of control, the T/C under setting [6] is 110 % of control, the T/C under setting [7] is 92 % of control and the T/C under setting [9] is 185 % of control.
Take `O=C1c2c(O)ccc(O)c2C(=O)c2c(NCCNCCO)ccc(NCCNCCO)c21`: the T/C runs as follows: (endpoint: median survival time, dose: 1.0 mg/kg/injection, schedule: Q04DX004 (ip), vehicle: acid diluted with saline, higher = longer survival) 96 % of control; (endpoint: median survival time, dose: 2.3 mg/kg/injection, schedule: Q07DX004 (iv), vehicle: water, higher = longer survival) 153 % of control; (endpoint: median survival time, dose: 3.7 mg/kg/injection, schedule: Q07DX004 (iv), vehicle: water, higher = longer survival) 176 % of control; (endpoint: median survival time, dose: 4.0 mg/kg/injection, schedule: Q04DX004 (ip), vehicle: acid diluted with saline, higher = longer survival) 117 % of control; (endpoint: median survival time, dose: 6.0 mg/kg/injection, schedule: Q07DX004 (iv), vehicle: water, higher = longer survival) 199 % of control; (endpoint: median tumor weight (est.), dose: 0.5 mg/kg/injection, schedule: Q07DX002 (ip), vehicle: water, higher = larger tumour) 92 % of control and 100 % of control and 102 % of control. In addition, the T/C (endpoint: median tumor weight (est.), dose: 1.0 mg/kg/injection, schedule: Q07DX002 (ip), vehicle: acid diluted with saline, higher = larger tumour) is 76 % of control; the T/C (endpoint: median tumor weight (est.), dose: 2.0 mg/kg/injection, schedule: Q07DX002 (ip), vehicle: acid diluted with saline, higher = larger tumour) is 49 % of control; the T/C (endpoint: median tumor weight (est.), dose: 3.0 mg/kg/injection, schedule: Q07DX003 (ip), vehicle: saline with Tween-80, higher = larger tumour) was 72 % of control; the T/C (endpoint: median tumor weight (est.), dose: 3.0 mg/kg/injection, schedule: Q07DX003 (iv), vehicle: acid diluted with saline, higher = larger tumour) was 11 % of control; the T/C (endpoint: median tumor weight (est.), dose: 4.0 mg/kg/injection, schedule: Q07DX002 (ip), vehicle: acid diluted with saline, higher = larger tumour) is 55 % of control.
Consider `O=C1NCC(Br)C(=O)N1` (centres undefined), for which the T/C is 97 % of control (endpoint: median tumor weight (est.), dose: 12.5 mg/kg/injection, schedule: Q07DX002 (ip), vehicle: saline + Tween-80 + alcohol, higher = larger tumour); 83 % of control (endpoint: median tumor weight (est.), dose: 25.0 mg/kg/injection, schedule: Q07DX002 (ip), vehicle: saline + Tween-80 + alcohol, higher = larger tumour); 99 % of control under setting [4]; 76 % of control under setting [10]; 157 % of control under setting [7]; 84 % of control under setting [11]. The T/C under setting [12] was 63 % of control.
Turning to `CCC(C(=O)O)C(=O)O.[NH2-].[NH2-].[Pt+2]`, the T/C under setting [1] is 46 % of control, the T/C under setting [2] was 19 % of control and the T/C under setting [3] was 2 % of control.
In the case of `CC1(C)N=C(N)N=C(N)N1c1ccc(CCCCc2ccc(S(=O)(=O)F)cc2Cl)c(Cl)c1`, the T/C runs as follows: (endpoint: median survival time, dose: 35.0 mg/kg/injection, schedule: Q01DX013 (ip), vehicle: saline with Tween-80, higher = longer survival) 117 % of control; (endpoint: median survival time, dose: 92.0 mg/kg/injection, schedule: Q01DX013 (ip), vehicle: saline with Tween-80, higher = longer survival) 157 % of control; (endpoint: median tumor weight (est.), dose: 6.25 mg/kg/injection, schedule: Q07DX002 (ip), vehicle: saline, higher = larger tumour) 44 % of control; under setting [1], 78 % of control; under setting [3], 1 % of control and 24 % of control and 26 % of control.
Turning to `Cc1ccc(N)c(N)c1`, the T/C by setting is: under setting [5], 80 % of control; under setting [6], 89 % of control; under setting [7], 101 % of control; under setting [8], 114 % of control; under setting [9], 96 % of control.
Take `Nc1nc(=S)c2[nH]cnc2[nH]1`: the T/C by setting is: (endpoint: median tumor weight (est.), dose: 1.56 mg/kg/injection, schedule: Q07DX002 (ip), vehicle: alkali diluted with saline, higher = larger tumour) 105 % of control; (endpoint: median tumor weight (est.), dose: 2.0 mg/kg/injection, schedule: Q07DX002 (ip), vehicle: alkali diluted with saline, higher = larger tumour) 63 % of control; (endpoint: median tumor weight (est.), dose: 2.0 mg/kg/injection, schedule: Q07DX003 (ip), vehicle: alkali diluted with saline, higher = larger tumour) 37 % of control and 46 % of control (2×); (endpoint: median tumor weight (est.), dose: 2.0 mg/kg/injection, schedule: Q07DX003 (ip), vehicle: saline, higher = larger tumour) 52 % of control and 61 % of control; (endpoint: median tumor weight (est.), dose: 3.13 mg/kg/injection, schedule: Q07DX002 (ip), vehicle: alkali diluted with saline, higher = larger tumour) 32 % of control; (endpoint: median tumor weight (est.), dose: 4.0 mg/kg/injection, schedule: Q07DX002 (ip), vehicle: alkali diluted with saline, higher = larger tumour) 44 % of control. In addition, the T/C is 54 % of control and 78 % of control (endpoint: median tumor weight (est.), dose: 4.0 mg/kg/injection, schedule: Q07DX002 (ip), vehicle: saline, higher = larger tumour); 27 % of control and 42 % of control (endpoint: median tumor weight (est.), dose: 4.0 mg/kg/injection, schedule: Q07DX003 (ip), vehicle: saline, higher = larger tumour); 29 % of control (endpoint: median tumor weight (est.), dose: 6.25 mg/kg/injection, schedule: Q07DX002 (ip), vehicle: alkali diluted with saline, higher = larger tumour); 21 % of control (endpoint: median tumor weight (est.), dose: 8.0 mg/kg/injection, schedule: Q07DX002 (ip), vehicle: alkali diluted with saline, higher = larger tumour); 26 % of control and 31 % of control (endpoint: median tumor weight (est.), dose: 8.0 mg/kg/injection, schedule: Q07DX002 (ip), vehicle: saline, higher = larger tumour); 8 % of control and 11 % of control and 18 % of control (endpoint: median tumor weight (est.), dose: 8.0 mg/kg/injection, schedule: Q07DX003 (ip), vehicle: alkali diluted with saline, higher = larger tumour). The T/C is 13 % of control and 37 % of control (endpoint: median tumor weight (est.), dose: 8.0 mg/kg/injection, schedule: Q07DX003 (ip), vehicle: saline, higher = larger tumour); 9 % of control (endpoint: median tumor weight (est.), dose: 12.5 mg/kg/injection, schedule: Q07DX002 (ip), vehicle: alkali diluted with saline, higher = larger tumour); 20 % of control (endpoint: median tumor weight (est.), dose: 16.0 mg/kg/injection, schedule: Q07DX002 (ip), vehicle: alkali diluted with saline, higher = larger tumour); 17 % of control and 24 % of control (endpoint: median tumor weight (est.), dose: 16.0 mg/kg/injection, schedule: Q07DX002 (ip), vehicle: saline, higher = larger tumour); 2 % of control and 8 % of control (endpoint: median tumor weight (est.), dose: 16.0 mg/kg/injection, schedule: Q07DX003 (ip), vehicle: alkali diluted with saline, higher = larger tumour); 4 % of control and 15 % of control (endpoint: median tumor weight (est.), dose: 16.0 mg/kg/injection, schedule: Q07DX003 (ip), vehicle: saline, higher = larger tumour). For the same compound, the T/C is 18 % of control (endpoint: median tumor weight (est.), dose: 25.0 mg/kg/injection, schedule: Q07DX002 (ip), vehicle: alkali diluted with saline, higher = larger tumour); 14 % of control (endpoint: median tumor weight (est.), dose: 32.0 mg/kg/injection, schedule: Q07DX002 (ip), vehicle: alkali diluted with saline, higher = larger tumour); 2 % of control (endpoint: median tumor weight (est.), dose: 32.0 mg/kg/injection, schedule: Q07DX003 (ip), vehicle: alkali diluted with saline, higher = larger tumour); 9 % of control (endpoint: median tumor weight (est.), dose: 32.0 mg/kg/injection, schedule: Q07DX003 (ip), vehicle: saline, higher = larger tumour); 16 % of control (endpoint: median tumor weight (est.), dose: 50.0 mg/kg/injection, schedule: Q07DX002 (ip), vehicle: alkali diluted with saline, higher = larger tumour).
Take `COc1cc2c(c(OC)c1OC)-c1c(cc3c(c1OC)OCO3)CC(C)C(C)(O)C2OC(=O)c1ccccc1` (centres undefined): the T/C by setting is: under setting [4], 165 % of control; under setting [10], 103 % of control; under setting [11], 106 % of control; under setting [12], 211 % of control; (endpoint: median tumor weight (est.), dose: 800.0 mg/kg/injection, schedule: Q07DX002 (ip), vehicle: saline + Tween-80 + alcohol, higher = larger tumour) 111 % of control.
`CCOc1cc2c(cc1C(C)c1ccc(OC)cc1)OCO2` (centres undefined): the T/C runs as follows: (endpoint: median tumor weight (est.), dose: 50.0 mg/kg/injection, schedule: Q07DX002 (ip), vehicle: distilled water + Tween-80 + alcohol, higher = larger tumour) 72 % of control; (endpoint: median tumor weight (est.), dose: 100.0 mg/kg/injection, schedule: Q07DX002 (ip), vehicle: distilled water + Tween-80 + alcohol, higher = larger tumour) 100 % of control; (endpoint: median tumor weight (est.), dose: 400.0 mg/kg/injection, schedule: Q07DX002 (ip), vehicle: distilled water + Tween-80 + alcohol, higher = larger tumour) 100 % of control.

(Values after PubChem BioAssay AID212 (DTP/NCI, 2004).)
